Literature values, collected in patent US20260014155A1, “TICAGRELOR SOLID DISPERSION, METHOD FOR PREPARING SAME, AND USE THEREOF” (WISDOM PHARMACEUTICAL CO., LTD., priority 2022, published 2026).

Conditions: low solubility and low permeability

In the case of `CCCSc1nc(N[C@@H]2C[C@H]2c2ccc(F)c(F)c2)c2nnn([C@@H]3C[C@H](OCCO)[C@@H](O)[C@H]3O)c2n1` [ticagrelor, (1S,2S,3R,5S)-3-[7-{[(1R,2S)-2-(3,4-difluorophenyl)cyclopropyl]amino}-5-(propylthio)-3H-[1,2,3]-triazolo[4,5-d]pyrimidin-3-yl]-5-(2-hydroxyethoxy)cyclopentane-1,2-diol], the biopharmaceutical classification is given as “BCS class 4”.
